In article PMC5794198, “Inhibitors of Trypanosoma cruzi Sir2 related protein 1 as potential drugs against Chagas disease” (PLoS Neglected Tropical Diseases, 2018):
Entries after “also recorded” stand apart in the source; their conditions may differ. Like-named read-outs stand apart in the source and are kept apart here.

What was measured:
[1] = C2C12 host cell cytotoxicity (cell ratio) in HCS assay; assay type: cell-based, Mouse; conditions: mouse, cell ratio, 72 h; read-out: C2C12 Cytotoxicity (CC50 ± SD)
Procedure: (§1) For the evaluation of the activity against T. cruzi amastigotes, high-content screening (HCS) was designed. In summary, 100 μL of host C2C12 cells (ATCC) were seeded in clear bottom black 96-well plates at a density of 2.5 x 10^4 cells/mL (2.5 × 10^3 cells/well). […] The parasites were allowed to infect for a 24 hr period, after which compounds were added in a volume of 50 μL. […] After 72 hrs of compound incubation, the wells were fixed with 4% paraformaldehyde for 15 to 30 mins. The plates were then washed once with deionized water and stained with a solution of DAPI (3 μM) for 1 hour. Plates were imaged in an INCell 2000 (GE Healthcare) high-content analyser by taking 16 pictures per well at 20 X objective amplification. Images were analysed with INCell Developer software (GE Healthcare) using the segmentation of host cell nuclei and parasite kinetoplast DNA. The measurement output used was the average number of parasites per cell calculated by the ratio of host cell nuclei/parasite kinetoplast DNA.

C2C12 cells = test: as above; assay type: cell-based, Mouse; conditions: for Selectivity Index: CC50 cell line (C2C12)/EC50 T. cruzi; for CC50: cell ratio, 72 h, read-out: C2C12 Cytotoxicity (CC50 ± SD)
Procedure: as §1

T. cruzi amastigotes = test: High-content screening assay on intracellular T. cruzi amastigotes; assay type: cell-based, Trypanosoma cruzi; conditions: for EC50: Y strain in C2C12 host cells, 72 h, read-out: Anti-T. cruzi Activity Amastigotes (EC50 ± SD)
Procedure: For the evaluation of the activity against T. cruzi amastigotes, high-content screening (HCS) was designed. In summary, 100 μL of host C2C12 cells (ATCC) were seeded in clear bottom black 96-well plates at a density of 2.5 x 10^4 cells/mL (2.5 × 10^3 cells/well). After 24 hrs, 50 μL of Y strain tissue culture-derived trypomastigotes were used to infect the host cells at a density of 7.5 x 10^5/mL (3.75 x 10^4 parasites/well). The parasites were allowed to infect for a 24 hr period, after which compounds were added in a volume of 50 μL. […] After 72 hrs of compound incubation, the wells were fixed with 4% paraformaldehyde for 15 to 30 mins. The plates were then washed once with deionized water and stained with a solution of DAPI (3 μM) for 1 hour. Plates were imaged in an INCell 2000 (GE Healthcare) high-content analyser by taking 16 pictures per well at 20 X objective amplification. Images were analysed with INCell Developer software (GE Healthcare) using the segmentation of host cell nuclei and parasite kinetoplast DNA. The measurement output used was the average number of parasites per cell calculated by the ratio of host cell nuclei/parasite kinetoplast DNA.
In this assay, the compounds are incubated for 72 hours with cells previously infected with wild-type trypomastigotes for 24 hours. The readout was done by comparing the average number of amastigotes per cell that developed by the end of the incubation period. The quality of the assay was statistically evaluated by the calculation of the z-factor [75], that represents the reliability of the assay in distinguishing positive controls confidently from negative controls. Varying from 0 to 1, z-factor values higher than 0.5 are considered acceptable for drug screening. The z-factor obtained was 0.68, validating the use of the assay (S3B Fig).

human SIRT1 = target: T1, human SIRT1 (Homo sapiens, UniProt Q96EB6); test: hSIRT1 deacetylase inhibition (CycLex kit); assay type: biochemical; conditions: 10 µM, n=2, N.I. = no inhibition; for inhibition at 10 µM: read-out: hSIRT1 Inhibition at 10 µM (% ± SD)
T1 sequence (Q96EB6 1-747): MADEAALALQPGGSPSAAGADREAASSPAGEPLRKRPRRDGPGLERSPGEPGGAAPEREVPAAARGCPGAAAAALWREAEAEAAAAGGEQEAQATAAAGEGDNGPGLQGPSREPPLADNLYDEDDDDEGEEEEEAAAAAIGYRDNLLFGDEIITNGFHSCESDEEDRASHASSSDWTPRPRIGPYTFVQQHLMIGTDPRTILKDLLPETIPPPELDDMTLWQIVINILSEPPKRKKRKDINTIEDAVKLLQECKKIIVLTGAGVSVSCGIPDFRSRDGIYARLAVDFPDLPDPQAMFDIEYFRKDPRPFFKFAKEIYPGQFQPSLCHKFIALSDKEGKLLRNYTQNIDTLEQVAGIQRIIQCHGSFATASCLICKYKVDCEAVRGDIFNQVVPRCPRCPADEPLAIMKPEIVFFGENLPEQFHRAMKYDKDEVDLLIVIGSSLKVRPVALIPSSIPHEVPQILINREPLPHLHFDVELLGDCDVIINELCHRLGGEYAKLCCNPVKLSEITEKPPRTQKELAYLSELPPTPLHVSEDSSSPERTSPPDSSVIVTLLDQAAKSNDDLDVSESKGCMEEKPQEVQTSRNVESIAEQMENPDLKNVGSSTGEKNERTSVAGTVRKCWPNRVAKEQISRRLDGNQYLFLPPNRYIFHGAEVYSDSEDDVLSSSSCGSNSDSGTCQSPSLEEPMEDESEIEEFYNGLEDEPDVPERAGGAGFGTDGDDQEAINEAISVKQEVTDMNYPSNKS

TcSir2rp1 = TcSir2rp1 (Trypanosoma cruzi, UniProt Q4DVL9); test: TcSir2rp1 NAD+-dependent deacetylase fluorimetric assay (CycLex kit); assay type: biochemical; conditions: for Inhibition of NAD+-dependent deacetylase activity of TcSir2rp1 / inhibition at 10 µM: single dose 10 μM, 200 μM NAD+, 10 μM peptide
Procedure: The deacetylase activity was measured using the commercial SIRT1/Sir2 Deacetylase Fluorometric Assay Kit (CycLex,Japan) according to the manufacturer’s recommendations. Briefly, fluorescence emission after digestion of deacetylated substrates by a lysine specific endopeptidase was measured in a fluorometric plate reader (Synergy HT, BioTek) with excitation and emission wavelengths set at 340 and 440 nm, respectively, every 30 seconds for 1 hour. The slope of the linear part of the reaction was calculated and used as readout of enzyme activity. […]
(§2) A variety of the bisnaphthalimidopropyl (BNIPs) derivatives, as well as the newly synthetized derivatives were evaluated as potential TcSir2rp1 inhibitors. The enzymatic reactions were performed using a commercially available CycLex SIRT1/Sir2 deacetylase fluorimetric kit (CycLex Co. Ltd., Nagano, Japan) in the absence and presence of the various inhibitors, 200 μM NAD^+ and 10 μM of peptide substrate as previously described.
as §2, with “µM” for “μM”

Solubility = assay type: physicochemical; conditions: limits the concentration tested
[2] = test system: T. cruzi epimastigotes overexpressing TcSir2rp1 (OE) with the pTcINDEX; test: microbe, parasite or virus in culture; assay type: cell-based; conditions: Trypanosoma cruzi, read-out: EC50 against T. cruzi epimastigotes OE
Procedure: For the generation of transgenic cell lines, 15 μg of the constructs were digested overnight (SpeI for the pTcINDEX construct; NotI for the knockout constructs), precipitated with sodium acetate / ethanol, and introduced into 1.5 x 10^7 epimastigote cells in the logarithmic phase of growth via transfection using an AMAXA Nucleofector II device (program V-33) with the Human T-cell nucleofector kit (Lonza). Parasites were suspended in fresh growth medium and incubated for 24-hrs to allow for the expression of drug selectable markers, prior to the addition of appropriate antibiotic (Blasticidin S (Thermo Fisher Scientific; 10 μg/mL); Hygromycin B (Formedium; 100 μg/mL); and Puromycin (Calbiochem; 5 μg/mL). Cells were then incubated for a further four- to six-weeks to allow for the selection of transgenic parasites and then genetically verified by PCR using ORF and drug selection primers.
The TcSir2rp1 open reading frame (TriTryp accession number TcCLB.508207.150) was amplified from CL-Brener genomic DNA using KOD polymerase (Novagen). The resulting PCR product encoding the full-length ORF was cloned directly into the T. cruzi expression vector, pTcINDEX [49], using NotI and BamHI restriction sites.
T. cruzi epimastigotes were seeded at 1.25 x 10^6 cells/mL in a 96-well plate in the presence of varying concentrations of test compounds. Following a 64-hour incubation, 15 μL of a resazurin solution (Sigma-Aldrich; 1.1 mg/mL in PBS). Following an additional 6-hr incubation, cell viability was determined by measuring the fluorescence of each culture with a BioTek FLX800 Fluorescence Microplate Reader (excitation and emission wavelengths of 540/535 nm and 590/610 nm, respectively) and associated Gen5 Reader Control 2.0 software. EC50 values were determined by nonlinear regression to a sigmoidal dose-response curve using GraFit software (Version 5.0, Erithacus Software). Each assay was performed in at least triplicate in parallel to the known trypanocidal agent nifurtimox.

Chain of TcSir2rp1 (Q4DVL9 entry or part of it): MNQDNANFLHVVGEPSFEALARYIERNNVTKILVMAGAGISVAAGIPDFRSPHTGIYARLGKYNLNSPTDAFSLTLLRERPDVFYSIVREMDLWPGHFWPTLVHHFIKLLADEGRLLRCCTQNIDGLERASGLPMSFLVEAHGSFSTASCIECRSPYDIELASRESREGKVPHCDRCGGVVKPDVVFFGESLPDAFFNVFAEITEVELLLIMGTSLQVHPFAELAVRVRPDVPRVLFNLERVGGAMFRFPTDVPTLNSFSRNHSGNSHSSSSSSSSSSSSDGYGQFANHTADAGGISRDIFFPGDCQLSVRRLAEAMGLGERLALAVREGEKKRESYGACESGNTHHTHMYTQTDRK

Structure (SMILES) | hSIRT1 Inhibition at 10 µM (% ± SD) (human SIRT1) | inhibition at 10 µM (human SIRT1) | CC50 at 72 h [1] | Selectivity Index (C2C12 cells) | EC50 (T. cruzi amastigotes; Trypanosoma cruzi, C2C12, 72 h) | further results
O=C1c2cccc3cccc(c23)C(=O)N1CCCNCCCCNCCCN1C(=O)c2cccc3cccc(c23)C1=O [Compound 1] | – | – | 2910 ± 940 nM | 1.7 | 1710 ± 230 nM | –
O=C1c2cccc3cccc(c23)C(=O)N1CCCNC1CCC(NCCCN2C(=O)c3cccc4cccc(c34)C2=O)CC1 (centres unmarked) [Compound 1a] | 1 ± 1% | – | – | 1.4 | – | CC50 (C2C12 cells): 8.74 ± 1.14 µM; EC50 (T. cruzi amastigotes): 6090 ± 140 nM
O=C1c2cccc3cccc(c23)C(=O)N1CCCNC1CCC(NCCCN2C(=O)c3cccc4cccc(c34)C2=O)CC1 (centres unmarked) [Compound 1b] | 3 ± 4% | – | – | > 3.2 | – | CC50 (C2C12 cells): > 2.5 µM; EC50 (T. cruzi amastigotes): 780 ± 120 nM
O=C1c2cccc3cccc(c23)C(=O)N1CCCNc1ccc(NCCCN2C(=O)c3cccc4cccc(c34)C2=O)cc1 [Compound 1c] | N.I. | – | – | – | – | –
O=C1c2cccc3cccc(c23)C(=O)N1CCCNCCCCCCCCNCCCN1C(=O)c2cccc3cccc(c23)C1=O [Compound 5] | – | – | – | – | – | Inhibition of NAD+-dependent deacetylase activity of TcSir2rp1 (TcSir2rp1): not active; also recorded: very little if any activity; Activity against amastigotes (primary screening) (T. cruzi amastigotes; single dose screening): very little if any activity
O=C1c2cccc3cccc(c23)C(=O)N1CCCN1CCC(CCCC2CCN(CCCN3C(=O)c4cccc5cccc(c45)C3=O)CC2)CC1 [Compound 6a] | – | 3 ± 4% | 2880 ± 120 nM | 2.0 | 1450 ± 300 nM | –
O=C1c2cccc3cccc(c23)C(=O)N1CCCNCCCCCCCCCCCCNCCCN1C(=O)c2cccc3cccc(c23)C1=O [Compound 8] | – | – | 1910 ± 60 nM | 1.3 | 1430 ± 100 nM | inhibition at 50 µM (TcSir2rp1): 31 ± 9%; Inhibition of NAD+-dependent deacetylase activity of TcSir2rp1 (TcSir2rp1): statistically significant inhibition
O=C1c2cccc3cccc(c23)C(=O)N1CCCNCCCNCCCCNCCCNCCCN1C(=O)c2cccc3cccc(c23)C1=O [Compound 10] | – | – | – | – | – | Solubility in assay (qualitative) (Solubility): poor solubility
CC1CS(=O)(=O)CCN1/N=C/c1ccc([N+](=O)[O-])o1 (centres unmarked) [Nifurtimox, nifurtimox, reference compound] | – | – | – | – | – | EC50 [2]: 2240 ± 140 nM
CC(/C=C/C(=O)NO)=C\[C@@H](C)C(=O)c1ccc(N(C)C)cc1 [trichostatin A, reference compound] | – | – | – | – | – | TcSir2rp1 deacetylase activity still displayed (TcSir2rp1; inhibitor at 1 μM): 77 ± 8%

Now from value to molecule, other results behind:

hSIRT1 Inhibition at 10 µM (% ± SD) (human SIRT1) | inhibition at 10 µM (human SIRT1) | Structure (SMILES) | CC50 at 72 h [1] | Selectivity Index (C2C12 cells) | EC50 (T. cruzi amastigotes; Trypanosoma cruzi, C2C12, 72 h) | further results
– | 44 ± 8% | O=C1c2cccc3cccc(c23)C(=O)N1CCCNC1CCC(CC2CCC(NCCCN3C(=O)c4cccc5cccc(c45)C3=O)CC2)CC1 (centres unmarked) [Compound 6b] | – | – | – | inhibition at 10 µM (TcSir2rp1): 8 ± 5%
– | 8 ± 1% | O=C1c2cccc3cccc(c23)C(=O)N1CCCNc1ccc(Cc2ccc(NCCCN3C(=O)c4cccc5cccc(c45)C3=O)cc2)cc1 [Compound 6c] | – | – | – | Solubility in assay (qualitative) (Solubility): poor solubility
N.I. | – | O=C1c2cccc3cccc(c23)C(=O)N1CCCNCCCN1CCN(CCCNCCCN2C(=O)c3cccc4cccc(c34)C2=O)CC1 [Compound 7a] | 19300 ± 5640 nM | 1.4 | 13600 ± 2900 nM | –
– | 3 ± 4% | O=C1c2cccc3cccc(c23)C(=O)N1CCCNCCOCCOCCNCCCN1C(=O)c2cccc3cccc(c23)C1=O [Compound 9a] | 7370 ± 650 nM | 2.1 | 3430 ± 570 nM | inhibition at 50 µM (TcSir2rp1): 29 ± 4%; Inhibition of NAD+-dependent deacetylase activity of TcSir2rp1 (TcSir2rp1): statistically significant inhibition; inhibition at 10 µM (TcSir2rp1): 28 ± 13%
N.I. | – | C[N+]1(CCCN2C(=O)c3cccc4cccc(c34)C2=O)CCN(CCCN2C(=O)c3cccc4cccc(c34)C2=O)CC1 [Compound 12] | > 50000 nM | > 1.7 | 28700 ± 4090 nM | –
– | 15 ± 4% | O=C1c2cccc3c(Cl)ccc(c23)C(=O)N1CCCN1CCN(CCCN2C(=O)c3cccc4c(Cl)ccc(c34)C2=O)CC1 [Compound 13] | > 2500 nM | – | 590 ± 230 nM | inhibition at 20 µM (TcSir2rp1): 48 ± 6%; Inhibition of T. cruzi enzyme relative to hSIRT1, fold higher (TcSir2rp1; both at 10 μM): at least 3 fold; Inhibition of NAD+-dependent deacetylase activity of TcSir2rp1 (TcSir2rp1): statistically significant inhibition; inhibition at 10 µM (TcSir2rp1): 50 ± 8%; Solubility in assay (qualitative) (Solubility): low solubility
